Tested on: primary mixed cortical cultures stimulated with LPS
Experiment: Cytokine release (TNF-α, IL-6) from LPS stimulated primary mixed cortical cultures
Assay type: cell-based, mouse
Method: Culturing of primary cells was performed as described (Lubetzki et al., 1993) using brain tissue from embryos isolated from NMRI mice at 16 days post-coitum. Cerebral hemispheres were dissected from embryo brains, dissociated via trypsin digestion and the single cell suspension was seeded at 5×10^4 cells in 50 μl myelination medium per well onto BioCoat® poly-L-lysine coated 96-well plates (356516, Becton Dickinson). The myelination medium consisted of Bottenstein-Sato medium (Bottenstein and Sato, 1979; Sadir et al., 2001), supplemented with 1% FCS, 1% penicillin-streptomycin solution (Seromed) and recombinant platelet-derived growth factor AA (PDGF-AA, R&D Systems) at 10 ng/mL.
For testing the effects of SDF-1α and SDF-1α variant (as defined in SEQ ID NO: 4) on LPS stimulated cultures, cells were allowed to grow for two weeks. At day 14 cells were pre-incubated with increasing concentrations (0.001, 0.1 and 10 ng/ml) of the corresponding proteins into 25 μl of medium for three hours at 37° C. and 10% CO2. LPS was then supplemented to the cells at the concentration of 5 ng/ml into 25 μl of medium to obtain a final volume of 100 μl and incubated for 48 hours. Supernatants were collected at day 16 and the levels of TNF-α and IL-6 (the major cytokines released by activated microglia) were measured via specific ELISAs purchased from R&D systems (DuoSet mouse TNF-α ELISA DY410, mouse IL-6 ELISA DY406).
Global analysis of the data was performed using one-way ANOVA. Dunnett's test was used further, and data were compared to the “untreated cells”. The level of significance was set at a: p<0.001; b or **: p<0.01; c or *: p<0.05; d: p<0.1. The results were expressed as mean ±standard error of the mean (s.e.m.).

[1] = pre-incubation 3 h (SDF proteins 0.001, 0.1, 10 ng/ml; IL-10 10 ng/ml; dexamethasone 25 pM), then LPS 5 ng/ml 48 h, ELISA, compared to untreated cells

SDF-1α: Human recombinant chemokine SDF-1α (SEQ ID NO: 1), produced in house, expressed in E. Coli cells
levels of IL-6 secretion [1]: significantly decreased | levels of TNF-α secretion [1]: significantly decreased | best concentration for decrease of TNF-α and IL-6 secretion (tested 0.001, 0.1 and 10 ng/ml, LPS 5 ng/ml 48 h): 10 ng/mL

From patent US20080253996A1, “Use of Sdf-1 for the Treatment and/or Prevention of Neurological Diseases” (LABORATORIES SERONO SA, priority 2005, published 2008)
